Experimental data as given in article PMC2365101, “Anti-Inflammatory Activity of (Polyphenolic)-Sulfonates and Their Sodium Salts in Rodents” (Metal-Based Drugs, 1998).

Target: T1, TNFα high affinity receptors on L929 fibroblasts (Mus musculus, UniProt P25118)
T1 construct: host or cells: L929 mouse fibroblasts
T1 sequence (P25118 30-454): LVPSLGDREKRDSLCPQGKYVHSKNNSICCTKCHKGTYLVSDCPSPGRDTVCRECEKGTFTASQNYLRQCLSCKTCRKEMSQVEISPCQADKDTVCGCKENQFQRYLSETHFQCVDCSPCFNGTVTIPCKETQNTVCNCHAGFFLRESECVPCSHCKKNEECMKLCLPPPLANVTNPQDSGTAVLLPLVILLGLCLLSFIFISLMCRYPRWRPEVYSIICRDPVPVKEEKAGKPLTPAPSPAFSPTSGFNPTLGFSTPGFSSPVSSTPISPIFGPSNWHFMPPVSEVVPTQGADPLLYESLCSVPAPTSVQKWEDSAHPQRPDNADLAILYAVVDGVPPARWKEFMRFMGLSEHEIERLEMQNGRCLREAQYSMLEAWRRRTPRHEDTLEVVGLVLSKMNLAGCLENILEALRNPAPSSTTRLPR
Test: 125I-TNFα binding to high affinity receptors on L929 fibroblasts
Conditions: 90 min, N=6
Source text: Few reports in the literature indicate interaction at these receptor sites other than by peptides or antibodies. […] Blocking these receptors is desirable because the entire inflammation cascade of events is triggered by the early release of TNFa and IL-1. […] Radioisotopes were obtained from New England Nuclear [Dupont, Boston, MA] and substrates and co- factors were obtained from Sigma Chemical Co. [St. Louis, MO]. […] Cell lines were obtained from American Type Culture Collection [Rockville, MD]. In Vivo Tests Anti-inflammatory screen in mice: Male CF male mice weighing 28-32g obtained from Jackson Lab. [Bar Harbor, […]] were used to screen agents at 8 or 16 mg/kg intraperitoneal [I.P.] x 2 administered 3 hr and 30 min prior to administering the irritant, according to Winter's protocol. Evaluation of the induced edema was made by injecting 2% carrageenan in 0.9% saline into the plantar region of the foot. The opposite foot injected with 0.9% isotonic saline was used as a base line. […] Salmonella abortus equi [Lot # 69F4003] […] Drugs from 2 to 16 mg/kg, I.P. were administered 2 hr prior and 2 hr post-injection of the LPS and then subsequently for every 24 hr for the length ofthe animals' lives. Deaths were recorded every 12 hr and continued for 96 hr. […] In vitro TNFa andIL-1 Measurements and Cellular Regulation IC-21 mouse macrophages were maintained in RPMI-1640 + 10% FCS + P/S. After the cells had grown to confluency, E. coli LPS at 10 Ixg/ml was added to the medium. Agents were incubated at 12.5 to 100 µM final concentration for 18 hr. The medium (100 btl) was collected for TNFCt determinations. Interleukin-1 [IL-1] release was determined using P388D1 cells which were maintained in RPMI-1640 + 10% FCS + P/S. The L929 bioassay was used to quantitate the TNF and the IL-1 levels. The L929 mouse fibroblasts were grown in DMEM + 10% FCS + P/S to confluency in 96 well plates and incubated with 100 tl ofmedium from […] or P388D cells after 18 hr. The cells were stained with 0.2% crystal violet in 20% MeOH and read at 580 nm using a Molecular Devices scanner (SOFT-max program). High Affinity Binding to Receptors on L929-106 Cells Two laCi of 125I-TNFct (human recombinant, 30 mCi/tg New England Nuclear) or 125I-IL-1 (70-120[.t Ci/lxg,New England Nuclear) was added to confluency L929 cells for 90 min or 5 hr, […] The cells were washed repeatedly with isotonic saline, pH.7.2 and aliquots counted. Prostaglandin cylcooxygenase activity Mouse J774AI macrophages maintained in Dulbecco's modified Eagle's medium + 15% FCS + P/S. Cells (5 x 106) were incubated with agents (5 to 100 ].tM final concentration) and 3H-arachidonic acid (100 Ci/mol) for 60 min at 37C in a CO2 incubator. The reaction was terminated with 2N HCI, the mixture extracted 2 X with ether, and the organic layer evaporated.

SMILES: CC(=O)Oc1c2cc(S(=O)(=O)[O-])cc1Cc1cc(S(=O)(=O)[O-])cc(c1OC(C)=O)Cc1cc(S(=O)(=O)[O-])cc(c1OC(C)=O)Cc1cc(S(=O)(=O)[O-])cc(c1OC(C)=O)Cc1cc(S(=O)(=O)[O-])cc(c1OC(C)=O)Cc1cc(S(=O)(=O)[O-])cc(c1OC(C)=O)Cc1cc(S(=O)(=O)[O-])cc(c1OC(C)=O)Cc1cc(S(=O)(=O)[O-])cc(c1OC(C)=O)C2.[Na+].[Na+].[Na+].[Na+].[Na+].[Na+].[Na+].[Na+] [Compound 8]
- TNFα binding, Percent of Control (5 μM): 59 + 6% of Control
- TNFα binding, Percent of Control (25 μM): 23 + 4% of Control
- TNFα binding, Percent of Control (50 μM): 37 + 4% of Control

SMILES: COc1c2cc(S(=O)(=O)[O-])cc1Cc1cc(S(=O)(=O)[O-])cc(c1OC)Cc1cc(S(=O)(=O)[O-])cc(c1OC)Cc1cc(S(=O)(=O)[O-])cc(c1OC)Cc1cc(S(=O)(=O)[O-])cc(c1OC)Cc1cc(S(=O)(=O)[O-])cc(c1OC)C2.[Na+].[Na+].[Na+].[Na+].[Na+].[Na+] [Compound 6]
- TNFα binding, Percent of Control (5 μM): 61 + 5% of Control
- TNFα binding, Percent of Control (12.5 μM): 39 + 4% of Control
- TNFα binding, Percent of Control (25 μM): 24 + 3% of Control
- TNFα binding, Percent of Control (50 μM): 36 + 5% of Control
